{"source": "patent US9498483B2", "about": "“2,3,5-trisubstituted thiophene compounds and uses thereof” (priority 2010, dated 2016)"}
{"molecular_target": "T1, HCV polymerase (Hepatitis C virus genotype 1b, UniProt Q9WMX2)", "T1 construct": "(His)6 (C); made in house; host or cells: XL-1 cells (E. coli, by own knowledge)", "assay": "Polymerase assay of Biological Example 1 (IC50 values of Table 3)", "type": "biochemical", "details": "IC50 values of Table 3, polymerase assay of Biological Example 1; read-out: NS5B-enzyme3", "source_text": "A number of assays have been published to assess these activities. A general method that assesses the gross increase of HCV virus in culture was disclosed in U.S. Pat. No. 5,738,985 to Miles et al. In vitro assays have been reported in Ferrari et al. Jnl. of Vir., 73:1649-1654, 1999; Ishii et al., Hepatology, 29:1227-1235, 1999; Lohmann et al., Jnl of Bio. Chem., 274:10807-10815, 1999; and Yamashita et al., Jnl. of Bio. Chem., 273:15479-15486, 1998.\nWO 97/12033, filed on Sep. 27, 1996, by Emory University, listing C. Hagedorn and A. Reinoldus as inventors, which claims priority to U.S. Provisional Patent Application Ser. No. 60/004,383, filed on September 1995, described an HCV polymerase assay that can be used to evaluate the activity of the of the compounds described herein. Another HCV polymerase assay has been reported by Bartholomeusz, et al., Hepatitis C Virus (HCV) RNA polymerase assay using cloned HCV non-structural proteins; Antiviral Therapy 1996:1 (Supp 4) 18-24.", "units": {"IC50": "µM"}}
{"compound": "C[C@H]1CCCN1c1ccc(S(=O)(=O)N2CC(=O)N(c3cc(-c4ccccc4)sc3C(=O)O)C(C3CCCCC3)C2)cn1", "note": "(stereo partly drawn) [Compound 119, 3-{2-Cyclohexyl-4-[6-((S)-2-methyl-pyrrolidin-1-yl)-pyridine-3-sulfonyl]-6-oxo-piperazin-1-yl}-5-phenyl-thiophene-2-carboxylic acid]", "IC50": 0.009}
{"compound": "O=C(O)c1sc(-c2ccccc2)cc1N1C(=O)CN(S(=O)(=O)c2ccc(NC3CCCCC3)nc2)CC1C1CCCCC1", "note": "(centres unmarked) [Compound 75, 3-[2-Cyclohexyl-4-(6-cyclohexylamino-pyridine-3-sulfonyl)-6-oxo-piperazin-1-yl]-5-phenyl-thiophene-2-carboxylic acid]", "IC50": 0.008}
{"compound": "O=C(O)c1sc(-c2ccc(Cl)cc2)cc1N1C(=O)CN(S(=O)(=O)c2ccc(N3C[C@H]4C[C@@H]3CO4)nc2)C[C@H]1C1CCCCC1", "note": "[Compound 274, 5-(4-Chloro-phenyl)-3-{(R)-2-cyclohexyl-4-[(1R,4R)-6-(2-oxa-5-aza-bicyclo[2.2.1]hept-5-yl)-pyridine-3-sulfonyl]-6-oxo-piperazin-1-yl}-thiophene-2-carboxylic acid]", "IC50": 0.001}
{"compound": "CC(C)(C)C#Cc1cc(N2C(=O)C(CCCS(C)(=O)=O)OC[C@H]2C2CCCCC2)c(C(=O)O)s1", "note": "(stereo partly drawn) [Compound 306, 3-[(R)-5-Cyclohexyl-2-(3-methanesulfonyl-propyl)-3-oxo-morpholin-4-yl]-5-(3,3-dimethyl-but-1-ynyl)-thiophene-2-carboxylic acid]", "IC50": 0.0053}
{"compound": "O=C(O)c1sc(-c2ccccc2)cc1N1C(=O)CN(Cc2cccc(-n3cccc3)c2)C[C@H]1C1CCCCC1", "note": "[Compound 261, 3-[(R)-2-Cyclohexyl-6-oxo-4-(3-pyrrol-1-yl-benzyl)-piperazin-1-yl]-5-phenyl-thiophene-2-carboxylic acid]", "IC50": 0.199}
{"compound": "Cc1cccc(C)c1CN1CC(=O)N(c2cc(-c3ccccc3)sc2C(=O)O)[C@H](C2CCCCC2)C1", "note": "[Compound 264, 3-[(R)-2-Cyclohexyl-4-(2,6-dimethyl-benzyl)-6-oxo-piperazin-1-yl]-5-phenyl-thiophene-2-carboxylic acid]", "IC50": 0.538}
{"compound": "Cc1cccc(CN2CC(=O)N(c3cc(-c4ccccc4)sc3C(=O)O)[C@H](C3CCCCC3)C2)c1", "note": "[Compound 263, 3-[(R)-2-Cyclohexyl-4-(3-methyl-benzyl)-6-oxo-piperazin-1-yl]-5-phenyl-thiophene-2-carboxylic acid]", "IC50": 0.108}
{"compound": "CC(C)(C)OC(=O)N1CC(=O)N(c2cc(-c3ccccc3)sc2C(=O)O)[C@H](C2CCCCC2)C1", "note": "[Compound 14, (R)-4-(2-Carboxy-5-phenyl-thiophen-3-yl)-3-cyclohexyl-5-oxo-piperazine-1-carboxylic acid tert-butyl ester]", "IC50": 3.65}
{"compound": "CN(C)c1ccc(CN2CC(=O)N(c3cc(-c4ccccc4)sc3C(=O)O)[C@H](C3CCCCC3)C2)cc1", "note": "[Compound 270, 3-[(R)-2-Cyclohexyl-4-(4-dimethylamino-benzyl)-6-oxo-piperazin-1-yl]-5-phenyl-thiophene-2-carboxylic acid]", "IC50": 0.019}
{"compound": "O=C(O)c1sc(-c2ccccc2)cc1N1C(=O)CN(CC2CCCCC2)C[C@H]1C1CCCCC1", "note": "[Compound 265, 3-((R)-2-Cyclohexyl-4-cyclohexylmethyl-6-oxo-piperazin-1-yl)-5-phenyl-thiophene-2-carboxylic acid]", "IC50": 0.601}
{"compound": "O=C(O)c1sc(-c2ccccc2)cc1N1C(=O)CN(Cc2cccc(F)c2N2CCOCC2)C[C@H]1C1CCCCC1", "note": "[Compound 266, 3-[(R)-2-Cyclohexyl-4-(3-fluoro-2-morpholin-4-yl-benzyl)-6-oxo-piperazin-1-yl]-5-phenyl-thiophene-2-carboxylic acid]", "IC50": 0.142}
{"compound": "Cc1ccccc1CN1CC(=O)N(c2cc(-c3ccccc3)sc2C(=O)O)[C@H](C2CCCCC2)C1", "note": "[Compound 269, 3-[(R)-2-Cyclohexyl-4-(2-methyl-benzyl)-6-oxo-piperazin-1-yl]-5-phenyl-thiophene-2-carboxylic acid]", "IC50": 0.33}
{"compound": "O=C(O)c1sc(-c2ccccc2)cc1N1C(=O)CN(CCc2ccccc2)C[C@H]1C1CCCCC1", "note": "[Compound 268, 3-((R)-2-Cyclohexyl-6-oxo-4-phenethyl-piperazin-1-yl)-5-phenyl-thiophene-2-carboxylic acid]", "IC50": 0.62}
{"compound": "3-[(2S,5R)-5-Cyclohexyl-2-(2,3-dihydroxy-propyl)-2-methyl-3-oxo-morpholin-4-yl]-5-(3,3-dimethyl-but-1-ynyl)-thiophene-2-carboxylic acid [Compound 326]", "IC50": 0.882}
{"test_system": "HCV replicon I389luc-ubi-neo/NS3-3′/ET in ET (Huh-lucubineo-ET) cells", "assay": "Replicon assay (Biological Example 2), luciferase readout", "type": "cell-based", "details": "Hepatitis C virus; ET cells, luciferase activity 48 hours after compound", "experimental": "(§1) A cell line, ET (Huh-lucubineo-ET) was used for screening of compounds for inhibiting HCV RNA dependent RNA polymerase. The ET cell line was stably transfected with RNA transcripts harboring a I389luc-ubi-neo/NS3-3′/ET; replicon with firefly luciferase-ubiquitin-neomycin phosphotransferase fusion protein and EMCV-IRES driven NS3-5B polyprotein containing the cell culture adaptive mutations (E1202G; T12801; K1846T) (Krieger at al, 2001 and unpublished). The ET cells were grown in DMEM (Dulbeco's Modified Eagle's Medium), supplemented with 10% fetal calf serum, 2 mM Glutamine, Penicillin (100 IU/mL)/Streptomycin (100 μg/mL), 1× nonessential amino acids, and 250 μg/mL G418 (“Geneticin”). Reagents were all available through Life Technologies (Bethesda, Md.). The cells were plated at 0.5-1.0×10^4 cells/well in the 96 well plates and incubated for 24 hrs before adding test compound. The compounds were added to the cells to achieve a final concentration of 0.1 nM to 50 μM and a final DMSO (dimethylsulfoxide) concentration of 0.5%. Luciferase activity was measured 48 hours later by adding a lysis buffer and the substrate (Catalog number Glo-lysis buffer E2661 and Bright-Glo luciferase system E2620 Promega, Madison, Wis.). Cells should not be too confluent during the assay. Percent inhibition of replication data was plotted relative to no compound control. To determine the EC50 (effective concentration at which 50% of the maximum inhibition was observed), a 10 point, 3-fold serial dilution for each compound was used, which spans a concentration range of […]. EC50 values were calculated by fitting % inhibition at each concentration to the following equation: % inhibition=100%/[(EC50/[I])^b+1] where b was Hill's coefficient.\n(§2) In other aspects the EC50 was equal to or less than 10 μM. In still other aspects the EC50 was equal to or less than 1 μM.", "units": {"IC50": "µM"}}
{"compound": "C[C@H]1CCCN1c1ccc(S(=O)(=O)N2CC(=O)N(c3cc(-c4ccccc4)sc3C(=O)O)C(C3CCCCC3)C2)cn1", "note": "(stereo partly drawn) [Compound 119, 3-{2-Cyclohexyl-4-[6-((S)-2-methyl-pyrrolidin-1-yl)-pyridine-3-sulfonyl]-6-oxo-piperazin-1-yl}-5-phenyl-thiophene-2-carboxylic acid]", "IC50": "≤ 0.1"}
{"compound": "O=C(O)c1sc(-c2ccccc2)cc1N1C(=O)CN(S(=O)(=O)c2ccc(NC3CCCCC3)nc2)CC1C1CCCCC1", "note": "(centres unmarked) [Compound 75, 3-[2-Cyclohexyl-4-(6-cyclohexylamino-pyridine-3-sulfonyl)-6-oxo-piperazin-1-yl]-5-phenyl-thiophene-2-carboxylic acid]", "IC50": "≤ 0.1"}
{"compound": "O=C(O)c1sc(-c2ccc(Cl)cc2)cc1N1C(=O)CN(S(=O)(=O)c2ccc(N3C[C@H]4C[C@@H]3CO4)nc2)C[C@H]1C1CCCCC1", "note": "[Compound 274, 5-(4-Chloro-phenyl)-3-{(R)-2-cyclohexyl-4-[(1R,4R)-6-(2-oxa-5-aza-bicyclo[2.2.1]hept-5-yl)-pyridine-3-sulfonyl]-6-oxo-piperazin-1-yl}-thiophene-2-carboxylic acid]", "IC50": "≤ 0.1"}
{"compound": "CC1CCN(c2ccc(S(=O)(=O)N3CC(=O)N(c4cc(-c5ccccc5)sc4C(=O)O)C(C4CCCCC4)C3)cn2)CC1", "note": "(centres unmarked) [Compound 96, 3-[2-Cyclohexyl-4-(4-methyl-3,4,5,6-tetrahydro-2H-[1,2′]bipyridinyl-5′-sulfonyl)-6-oxo-piperazin-1-yl]-5-phenyl-thiophene-2-carboxylic acid]", "IC50": "≤ 0.1"}
{"compound": "Cc1oncc1S(=O)(=O)N1CC(=O)N(c2cc(C#CC(C)(C)C)sc2C(=O)O)[C@H](C2CCCCC2)C1", "note": "[Compound 240, 3-[(R)-2-Cyclohexyl-4-(5-methyl-isoxazole-4-sulfonyl)-6-oxo-piperazin-1-yl]-5-(3,3-dimethyl-but-1-ynyl)-thiophene-2-carboxylic acid]", "IC50": "≤ 0.1"}
{"compound": "O=C(O)c1sc(-c2ccc(F)cc2)cc1N1C(=O)CN(S(=O)(=O)c2ccc(N3CC4CC3CO4)nc2)C[C@H]1C1CCCCC1", "note": "(stereo partly drawn) [Compound 228, 3-{(R)-2-Cyclohexyl-4-[6-(2-oxa-5-aza-bicyclo[2.2.1]hept-5-yl)-pyridine-3-sulfonyl]-6-oxo-piperazin-1-yl}-5-(4-fluoro-phenyl)-thiophene-2-carboxylic acid]", "IC50": "≤ 0.1"}
{"compound": "C[C@@H]1CCCN1c1ccc(S(=O)(=O)N2CC(=O)N(c3cc(-c4ccc(Cl)cc4)sc3C(=O)O)[C@H](C3CCCCC3)C2)cn1", "note": "[Compound 201, 5-(4-Chloro-phenyl)-3-{(R)-2-cyc!ohexyl-4-[6-((R)-2-methyl-pyrrolidin-1-yl)-pyridine-3-sulfonyl]-6-oxo-piperazin-1-yl}-thiophene-2-carboxylic acid]", "IC50": "≤ 0.1"}
{"compound": "O=C(O)c1sc(-c2ccc(F)cc2)cc1N1C(=O)CN(S(=O)(=O)c2ccc(N3CCCCC3)nc2)C[C@H]1C1CCCCC1", "note": "[Compound 235, 3-[(R)-2-Cyclohexyl-6-oxo-4-(3,4,5,6-tetrahydro-2H-[1,2′]bipyridinyl-5′-sulfonyl)-piperazin-1-yl]-5-(4-fluoro-phenyl)-thiophene-2-carboxylic acid]", "IC50": "≤ 0.1"}
{"compound": "CC1(C)CCN(c2ccc(S(=O)(=O)N3CC(=O)N(c4cc(-c5ccccc5)sc4C(=O)O)[C@H](C4CCCCC4)C3)cn2)C1", "note": "[Compound 219, 3-{(R)-2-Cyclohexyl-4-[6-(3,3-dimethyl-pyrrolidin-1-yl)-pyridine-3-sulfonyl]-6-oxo-piperazin-1-yl}-5-phenyl-thiophene-2-carboxylic acid]", "IC50": "≤ 0.1"}
{"compound": "CN1CCN(c2ccc(-c3ccc(S(=O)(=O)N4CC(=O)N(c5cc(-c6ccccc6)sc5C(=O)O)[C@H](C5CCCCC5)C4)cn3)cn2)CC1", "note": "[Compound 224, 3-{(R)-2-Cyclohexyl-4-[6′-(4-methyl-piperazin-1-yl)-[2,3′]bipyridinyl-5-sulfonyl]-6-oxo-piperazin-1-yl}-5-phenyl-thiophene-2-carboxylic acid]", "IC50": "≤ 0.1"}
{"test_system": "HCV replicon I389luc-ubi-neo/NS3-3′/ET in ET (Huh-lucubineo-ET) cells", "assay": "Replicon assay (Biological Example 2), luciferase readout", "type": "cell-based", "details": "Hepatitis C virus; between 100 nM and 5.0 uM", "experimental": "as §1, §2", "units": {"IC50": "µM"}}
{"compound": "O=C(O)c1sc(-c2ccccc2)cc1N1C(=O)CN(S(=O)(=O)c2ccc(-c3ccncc3)nc2)C[C@H]1C1CCCCC1", "note": "[Compound 207]", "IC50": "0.1 to 5"}
{"compound": "O=C(O)c1sc(-c2ccccc2)cc1N1C(=O)CC[C@H]1C1CCCCC1", "note": "[Compound 6, 3-((S)-2-Cyclohexyl-5-oxo-pyrrolidin-1-yl)-5-phenyl-thiophene-2-carboxylic acid]", "IC50": "0.1 to 5"}
